# Results: the RepoRT retention time repository
# Assay: Agilent ZORBAX 300 SB-C18, 150 × 1 mm, 3.5 µm; A: water + 0.01% heptafluorobutyric acid; B: acetonitrile + 0.01% heptafluorobutyric acid; gradient (min/%B) 0/0 100/90
# Conditions: stereoisomer not certain
row,LC retention time,SMILES
1,8.44 min,CC1C(=O)CCN(C(C)(C)C)C1C (centres undefined)
2,9.09 min,CC(C)(C)NCC(O)COc1nsnc1N1CCOCC1 (centres undefined)
3,11.9 min,COC(=O)c1ccc(NC(=O)Cn2nc(C)c3ccccc3c2=O)cc1
4,9.4 min,CN(C)CCC(=O)c1ccc2ccccc2c1
5,9.16 min,CC1=NC(=Cc2ccccc2)C(=O)O1
6,7.33 min,Nc1ccc(N2CCOCC2)c(N)c1
7,1.67 min,C[N+](C)(C)CC(=O)O
8,7.72 min,Cc1nc(C)c(C)nc1C
9,2.17 min,O=C(O)Cc1c[nH]c(=O)[nH]c1=O
10,1.42 min,O=C1NC(O)C(O)N1 (centres undefined)
11,6.39 min,CC(=O)Nc1ccc(O)c(NC(C)=O)c1
12,7.63 min,CC(C)(C)NCC(O)c1ccc(O)c(CO)c1 (centres undefined)
13,9.78 min,COc1ccc(N2CCCC2=O)cc1
14,7 min,CC(=O)N1CCC(C2CCNCC2)CC1
15,9.59 min,CCCc1c(O)c2ccccc2[nH]c1=O
16,5.52 min,Nc1ncc2[nH]cnc2n1
17,11.6 min,CC(=O)c1[nH]c(C)c(C(=O)c2ccccc2)c1C
18,13.8 min,CCOC(=O)C=CC(=O)NCCC1=CCCCC1
19,11.4 min,CC1=CC(=O)C2CC1C2(C)C (centres undefined)
20,5.78 min,CNCC1COCCO1 (centres undefined)
21,8.05 min,Cc1cc(C)nc(Nc2n[nH]c(C)n2)n1
22,9.67 min,CSC1=NC(C)(C)Cc2c(C)cccc21
23,12.9 min,CC(=O)c1cccc(NC(=O)Nc2ccc(C)cc2)c1
24,9.8 min,CC(C)c1ccc(C(=O)CCN(C)C)cc1

row,LC retention time,SMILES
1,11.1 min,Cc1cc2n(n1)c1cc(C)nn1c1cc(C)nn21
2,6.11 min,COCc1cc(=O)n2[nH]c(NC(C)=O)nc2n1
3,10.1 min,CN1CCOC(c2ccccc2)c2ccccc2C1 (centres undefined)
4,10.5 min,CC(C)(C)C(=O)NNc1ccccc1
5,7.84 min,O=CC1CCN(Cc2ccccc2)CC1
6,9.76 min,Cc1ccsc1CNC(C)c1ccccc1 (centres undefined)
7,13.8 min,CC(=O)C1(O)CCC2C3C=CC4=CC(=O)CCC4(C)C3CCC21C (centres undefined)
8,10.9 min,Cc1nc2ccccc2nc1C=O
9,14.4 min,Cc1cccc(-n2c(C)cc(C=NNC(N)=S)c2C)c1C
10,8.26 min,Cc1cccc(N(C)C)c1
11,6.06 min,Cn1c2c(c(=O)n(C)c1=O)C(CC(=O)O)C(=O)N2 (centres undefined)
12,6.77 min,O=C1CCCN1CCc1ccccn1
13,7.49 min,COC(=O)CCC1CCCNC1 (centres undefined)
14,7.29 min,CN(C)CCNC1=CC(=O)CC(C)(C)C1
15,10.2 min,S=C1NCN(CCC2=CCCCC2)CN1
16,7.5 min,O=C(O)c1ccccc1CN1CCCC1
17,8.39 min,OC12CC(Cc3cccnc31)c1ccccc12 (centres undefined)
18,7.58 min,Cc1ccc(CCC(=O)O)cc1N
19,16 min,CC(C)NC(=S)N1CCC(Cc2ccccc2)CC1
20,9.82 min,CC1CCN(C(=O)c2ccc(N)cc2)CC1
21,6.67 min,O=C1NCCN1C(=O)c1ccco1
22,12.3 min,CC1=NC(=O)NC(C2CC=CCC2)C1C(=O)OC(C)C (centres undefined)
23,8.38 min,CCNc1cccc(C)c1

# The remaining lines, values behind:
row,SMILES,LC retention time
1,COC(=O)Cn1ncccc1=O,6.64 min
2,COc1ccc(C=Cc2nc(=O)c3ccccc3o2)cc1,13.8 min
3,Cc1cccc(C(O)(C(=O)NN(C(=O)Nc2ccccc2)c2ccccc2)c2cccc(C)c2)c1,16.3 min
4,CC(C)(C)c1ccc(-c2nc(NCc3cccnc3)c3ccccc3n2)cc1,10.9 min
5,CCN(CC)C(=O)c1cc(NC(=O)c2ccc3c(c2)c(=O)n(C)c(=O)n3C)c(OC)c(OC)c1,11.7 min
6,O=Cc1ccc2cccnc2c1,8.85 min
7,Cc1ccc(N)c(N)c1,7.42 min
8,CSC1=NCCN1,5.98 min
9,CC(=NNC(=O)c1cc2ccccc2cc1O)c1ccc(-c2ccccc2)cc1,16.3 min
10,CC(NC(=O)c1ccccc1)C(=O)O (centres undefined),8 min
11,CC(=O)NC(Cc1c[nH]c2ccccc12)C(N)=O (centres undefined),7.8 min
12,O=C(OCC(c1ccccc1)c1ccccc1)c1cccnc1,15.9 min
13,CCCCc1ccc(NC(=O)c2ccc(OC(C)=O)cc2)cc1,16.5 min
14,c1ccc(C(NCc2cccs2)c2ccccc2)cc1,11.8 min
15,Cc1ccc(-c2cc(C(=O)O)c3ccccc3n2)cc1,12.4 min
16,Cc1cc(-c2noc(C(c3ccccc3)c3ccccc3)n2)c2ccccc2n1,16.9 min
17,CC1NCCC2(O)CCCCC12 (centres undefined),7.09 min
18,CCN(Cc1ccncc1)C(=S)Nc1ccccc1,8.91 min
19,O=C(Nc1cccc(C2=NCCN2)c1)Nc1cccc(C2=NCCN2)c1,7.98 min
20,N=C(N=C(N)N)N1CCSCC1,7.17 min
21,CC(O)CCN (centres undefined),3.82 min

row,SMILES,LC retention time
1,Cc1cc(C)c2c(=O)n(CC(=O)NC(C)CCc3ccccc3)c(=O)n(-c3ccccc3)c2n1 (centres undefined),15.7 min
2,O=C(Nc1ccc(Cc2ccncc2)cc1)c1ccc2ccccc2n1,11.4 min
3,Nc1ccc2c(c1)nc(-c1ccccc1)c1cc(N)ccc12,9.3 min
4,c1ccc2c(c1)CCc1c-2[nH]c2ccccc12,17.1 min
5,Cc1ncc(C[n+]2csc(CCOP(=O)(O)OP(=O)(O)O)c2C)c(N)n1,1.62 min
6,O=C(O)Cc1c(C(=O)O)[nH]c2ccc(C(=O)O)cc12,7.21 min
7,Nc1ccc(-c2cccs2)cc1,10.5 min
8,NC(=S)NN=C1CCCC1,8 min
9,CC(=O)Oc1ccc2cccc(N(C(C)=O)C(C)=O)c2c1,12 min
10,CC(C)c1ccccc1NC(=O)c1cc2ccccc2o1,15.9 min
11,O=C(Nc1cccnc1)c1ccc(=O)[nH]n1,6.84 min
12,O=C(N=CNC(=O)c1cccnc1)c1cccnc1,7.45 min
13,O=c1ccc2nc3ccc(O)cc3oc-2c1,9.57 min
14,Cc1[nH]c2ccccc2c1Cc1nc2ccccc2[nH]1,9.93 min
15,NCC(=O)Nc1ccccc1,7.45 min
16,Cc1ccc(-c2cnc3ccccc3n2)c(C)c1,17.4 min
17,Nc1ccccc1OCCOc1ccccc1N,8.96 min
18,CCCCCCCCCCN(C)C,12 min
19,NCCOc1ccc2ccccc2c1,9.22 min
20,Nc1cc(-c2ccc(C(=O)c3ccccc3)c(N)c2)ccc1C(=O)c1ccccc1,16.4 min
21,C1CCCNCCC1,7.37 min

row,SMILES,LC retention time
1,c1cnc2[nH]ccc2c1,7.27 min
2,COC(=O)c1ccc(C(=O)OC)c(NC(=O)CC(c2ccccc2)c2ccccc2)c1,18 min
3,CCNc1ccccc1,7.68 min
4,CCC(=O)Nc1ccc(Oc2ccc(NC(=O)CC)c(NC(=O)CC)c2)cc1,10.5 min
5,COc1ccc(C(=O)C=Cc2ccccc2)cc1,15.7 min
6,NCCCCCC(=O)O,6.81 min
7,C=CCC1(CC=C)CNCCN1,7.33 min
8,O=C(C=Cc1cccc(O)c1)c1ccccc1O,12.2 min
9,O=C(CCCCCN1C(=O)c2ccccc2C1=O)NCc1ccccn1,9.55 min
10,CC(C)c1ccc(C=NNC(=O)C[n+]2ccccc2)cc1,10.4 min
11,O=C(O)C1Cc2ccccc2CN1C(=O)c1ccccc1 (centres undefined),11.2 min
12,CN(C)CCCNC(=O)Nc1cccc2ccccc12,8.85 min
13,c1c[nH]cn1,2.95 min
14,COc1ccc(C=CC(=O)C=Cc2ccc(OC)cc2)cc1,16.1 min
15,O=C(NCCO)C(=O)NC(c1ccccc1)c1ccccc1,11.2 min
16,CCCC[N+]1(CCCC)CC[N+](CCCC)(CCCC)CC1,9.16 min
17,CCN1CCN(Cc2cc(C)cc(C=O)c2C)CC1,9.37 min
18,CC(=O)C=CC=C(C)CCC=C(C)C,17.1 min
19,c1ccc2c(Sc3nccc4ccccc34)nccc2c1,14.4 min
20,O=C(C=Cc1ccccc1O)c1ccccc1O,14.5 min
21,CCOC(=O)C1(c2ccccc2)CCN(CCc2ccc(N)cc2)CC1,10.1 min

row,SMILES,LC retention time
1,CC(C=Cc1ccccc1)=NNC(=O)C(C)Nc1ccc2ccccc2c1 (centres undefined),16.2 min
2,CCOc1ccccc1CNC(N)=O,9.32 min
3,CN1CCCCC1,6.61 min
4,COc1ccc(NC(C)c2ccccc2)cc1 (centres undefined),10.7 min
5,c1ccc(Sc2ccc3ccccc3n2)cc1,16.3 min
6,CC(=O)NC(NC(C)=O)NC(C)=O,1.91 min
7,CCC(C)c1ccccc1NC(=S)Nc1cccnc1 (centres undefined),11 min
8,CN(Cc1ccccc1)C(=O)c1ccco1,11.8 min
9,NC(=S)NN=Cc1c2ccccc2cc2ccccc12,13.7 min
10,CNC(C)C(=O)c1ccccc1 (centres undefined),8.4 min
11,O=C(CCCN1C(=O)c2ccccc2C1=O)OCc1ccccc1,15.1 min
12,CC(Nc1ccc2ccccc2c1)C(=O)NN=Cc1cccc2ccccc12 (centres undefined),16.7 min
13,c1ccc(-c2cnc(-c3cccc4ccccc34)o2)cc1,19.4 min
14,COCCCN,5.72 min
15,CCOC(=O)C(N)Cc1ccccc1 (centres undefined),9.03 min
16,O=C(O)CCCCC1SCC2NC(=O)NC21 (centres undefined),7.67 min
17,CC(C)Cn1c(Cc2ccccc2)nc2ccccc21,11.4 min
18,CCC(N)CC,7.05 min
19,Cn1c(O)c(Cc2ccc(OCc3ccccc3)cc2)c(=O)n(C)c1=O,15 min
